Laboratory results from publication PMC4045134, “Discovery of Triterpenoids as Reversible Inhibitors of α/β-hydrolase Domain Containing 12 (ABHD12)” (PLoS ONE, 2014).

Key:
Type in all cases: biochemical
hFAAH = molecular target: T1, hFAAH (Homo sapiens, UniProt O00519); experiment: FAAH activity, membranes of hFAAH overexpressing COS-7 cells, 3H-anandamide; settings: read-out: hFAAH Remaining activity % control (mean (range)), n=2
T1 construct: expressed in transfected cells; host or cells: COS-7
T1 sequence (O00519 1-579): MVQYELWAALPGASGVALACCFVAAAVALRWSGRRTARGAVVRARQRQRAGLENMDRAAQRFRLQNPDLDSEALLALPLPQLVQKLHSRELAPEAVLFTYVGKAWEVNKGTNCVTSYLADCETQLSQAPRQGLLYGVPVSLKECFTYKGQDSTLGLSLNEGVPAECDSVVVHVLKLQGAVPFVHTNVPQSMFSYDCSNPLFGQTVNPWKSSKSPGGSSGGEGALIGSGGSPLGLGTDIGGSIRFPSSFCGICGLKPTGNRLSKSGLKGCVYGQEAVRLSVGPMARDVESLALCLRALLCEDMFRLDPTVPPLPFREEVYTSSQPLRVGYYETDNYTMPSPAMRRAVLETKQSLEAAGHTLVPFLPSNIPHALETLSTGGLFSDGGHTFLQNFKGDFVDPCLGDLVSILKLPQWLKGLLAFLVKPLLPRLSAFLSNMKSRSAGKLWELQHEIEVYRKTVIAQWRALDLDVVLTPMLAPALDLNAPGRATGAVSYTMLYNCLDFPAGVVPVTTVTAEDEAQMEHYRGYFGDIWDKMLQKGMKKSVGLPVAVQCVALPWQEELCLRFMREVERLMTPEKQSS
Protocol: Glycerol liberated from 1-AG hydrolysis was determined with a sensitive fluorescent assay using lysates of HEK293 cells with transient overexpression of hABHD12, hABHD6 or hMAGL, essentially as previously described. […] Fluorescence (λex 530; λem 590 nm) was monitored using a Tecan Infinite M200 plate reader (Tecan Group Ltd., Männedorf, Switzerland). Inhibitory activities of selected compounds towards FAAH were determined using membranes of hFAAH overexpressing COS-7 cells, essentially as previously described. The final incubation volume (100 µL) contained 1 µg of protein and the substrate concentration was 20 µM (10 nM of ^3H-anandamide having specific activity of 60 Ci/mmol and concentration of 1 mCi/mL).

hCB2R = molecular target: T2, hCB2R (Homo sapiens, UniProt P34972); experiment: [35S]GTPγS binding, CB2R agonist activity, hCB2R-CHO cell membranes; settings: 10 µM
T2 construct: expressed in transfected cells; host or cells: CHO
T2 sequence (P34972 whole entry): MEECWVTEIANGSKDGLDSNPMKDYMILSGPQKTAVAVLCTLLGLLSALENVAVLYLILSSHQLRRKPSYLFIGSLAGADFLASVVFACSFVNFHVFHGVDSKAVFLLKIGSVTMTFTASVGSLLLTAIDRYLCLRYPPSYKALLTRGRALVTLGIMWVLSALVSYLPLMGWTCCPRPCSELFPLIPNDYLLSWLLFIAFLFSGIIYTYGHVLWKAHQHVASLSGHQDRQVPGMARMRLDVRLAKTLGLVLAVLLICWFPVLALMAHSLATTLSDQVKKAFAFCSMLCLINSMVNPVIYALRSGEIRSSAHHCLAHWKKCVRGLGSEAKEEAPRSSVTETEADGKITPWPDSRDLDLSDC

CB1R = molecular target: T3, CB1R (Rattus norvegicus, UniProt P20272); experiment: [35S]GTPγS binding, CB1R antagonist activity, rat cerebellar membranes; settings: 10 µM
T3 construct: membranes prepared from brain tissue of 4-week-old male rodents were used; from tissue; host or cells: rat cerebellar membranes
T3 sequence (P20272 whole entry): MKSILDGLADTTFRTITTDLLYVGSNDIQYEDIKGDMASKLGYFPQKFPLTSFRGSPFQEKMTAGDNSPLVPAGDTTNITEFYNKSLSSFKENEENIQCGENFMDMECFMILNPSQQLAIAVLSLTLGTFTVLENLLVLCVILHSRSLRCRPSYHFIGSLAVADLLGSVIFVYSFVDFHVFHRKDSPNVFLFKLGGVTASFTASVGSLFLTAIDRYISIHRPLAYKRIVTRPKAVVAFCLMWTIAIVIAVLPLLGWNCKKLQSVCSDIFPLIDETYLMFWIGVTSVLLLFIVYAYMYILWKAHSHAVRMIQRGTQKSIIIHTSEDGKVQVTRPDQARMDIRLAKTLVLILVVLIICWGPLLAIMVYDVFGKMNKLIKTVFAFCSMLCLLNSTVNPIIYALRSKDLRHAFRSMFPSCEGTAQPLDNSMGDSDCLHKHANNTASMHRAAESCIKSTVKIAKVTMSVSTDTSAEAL
Protocol: The CB1 and CB2 receptor activity of the selected compounds (10 µM) were measured using the GTPγS binding assay according to the previously described methods, [33].
For ABPP experiments (Figure 6C) and cannabinoid receptor activity assays (Table S2), membranes prepared from brain tissue of 4-week-old male rodents were used. The animals were obtained from the National Laboratory Animal Centre, University of Eastern Finland. Approval for the harvesting of animal tissue was obtained from the local welfare officer of the University of Eastern Finland.

[1] = system: metabolic serine hydrolases; experiment: Competitive ABPP, other serine hydrolases of mouse brain membrane proteome
Protocol: Competitive ABPP using HEK293 cell lysates and mouse brain membranes was conducted to visualize effects of selected triterpenoids on the binding of the active site serine-targeting fluorescent fluorophosphonate probe TAMRA-FP following outlines of previous protocols, [31]. Briefly, lysates (25 µg) of HEK293 cells with or without (Mock) hABHD12 overexpression or mouse wholebrain membranes (100 µg) were treated for 1 h with DMSO or the inhibitor, after which TAMRA-FP labelling was conducted for 5 min (lysates) or 1 hour (membranes) at RT (final probe concentration 2 µM). The reaction was quenched by addition of gel loading buffer (followed by boiling for 5 min in the case of lysates), after which 10 µg protein (10 µl) was loaded per lane and the proteins were resolved in 10% SDS-PAGE together with standards. TAMRA-FP labeling was visualized (λex 552; λem 575 nm) by a fluorescent reader (FLA-3000 laser fluorescence scanner, Fujifilm, Tokyo, Japan). The intensity of bands was quantified using ImageJ, a freely available image analysis software (http://rsbweb.nih.gov/ij/).
For ABPP experiments (Figure 6C) and cannabinoid receptor activity assays (Table S2), membranes prepared from brain tissue of 4-week-old male rodents were used. The animals were obtained from the National Laboratory Animal Centre, University of Eastern Finland. […]

hABHD12 = molecular target: T4, hABHD12 (Homo sapiens, UniProt Q8N2K0); experiment: Reversibility testing, 40-fold dilution of enzyme-inhibitor complex; settings: time points 10, 20, 30, 60 and 90 min
T4 construct: expressed in transfected cells; host or cells: HEK293 (transient)
T4 sequence (Q8N2K0 1-398): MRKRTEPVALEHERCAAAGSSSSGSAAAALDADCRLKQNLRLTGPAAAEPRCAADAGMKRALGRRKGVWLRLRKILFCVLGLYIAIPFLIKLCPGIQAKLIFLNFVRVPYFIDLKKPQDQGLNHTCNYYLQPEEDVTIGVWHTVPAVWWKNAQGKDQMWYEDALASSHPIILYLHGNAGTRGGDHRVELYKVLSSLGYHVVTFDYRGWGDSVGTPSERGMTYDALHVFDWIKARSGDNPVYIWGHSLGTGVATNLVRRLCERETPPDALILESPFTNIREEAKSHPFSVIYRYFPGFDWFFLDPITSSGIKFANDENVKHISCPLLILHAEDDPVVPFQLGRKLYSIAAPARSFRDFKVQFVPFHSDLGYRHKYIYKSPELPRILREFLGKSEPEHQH
Protocol: Reversibility testing was carried out as previously described. Briefly, DMSO/inhibitor (0.5 µl) was incubated together with hABHD12-HEK293 lysate (4.5 µl, 0.3 µg protein/well) in TEMN-BSA buffer for 30 min. After this, a 40-fold dilution of enzyme-inhibitor complex was brought about by addition of the substrate [1-AG, 12.5 µM final concentration, containing additionally 1% EtOH (v/v)] in 195 µl of glycerol assay mix and fluorescence was kinetically monitored at 10 min intervals for 90 min at RT.

In the case of CC1(C)CC[C@]2(C(=O)O)CC[C@]3(C)C(=CC[C@@H]4[C@@]5(C)C[C@@H](O)[C@H](O)C(C)(C)[C@@H]5CC[C@]43C)[C@@H]2C1 [Compound 8, Maslinic acid, reference compound], the remaining activity at 10 µM (hFAAH) is reported as 83%, the “CB2R agonist activity [35S]GTPγS binding % Basal (Mean (range), n=2)” value (hCB2R) is reported as 114 (104-123) % Basal and the “CB1R antagonist activity [35S]GTPγS binding % HU210-evoked response (Mean (range), n=2)” value (CB1R) is reported as 99 (97-102) % HU210-evoked response. For the same molecule, the “additional targets among the metabolic serine hydrolases” value [1] was “no additional targets are evident” and the “time-dependency of inhibitor potency (IC50) after 40-fold dilution” value (hABHD12) was “time-dependent drop of inhibitor potency”.
